Target: T1, SYK (Homo sapiens, UniProt P43405)
T1 construct: 2.5 nM SYK, 400 nM Biotin-Aha-Aha-KEDPDYEWPSAKK and 10 μM ATP
Assay: SYK Flash Plate Assay (enzyme assay)
Type: biochemical
Procedure: The kinase assay is performed either as 384-well Flashplate assay (for e.g. Topcount measurement) or as 384-well Image-Flashplate assay (for LEADseeker measurement).
2.5 nM SYK, 400 nM Biotin-Aha-Aha-KEDPDYEWPSAKK and 10 μM ATP (spiked with 0.3 μCi 33P-ATP/well) are incubated in a total volume of 50 μl (60 mM Hepes, 10 mM MgCl2, 1.2 mM Dithiothreitol, 0.02% Brij35, 0.1% BSA, pH 7.5) with or without test compound for 1 hours at 30° C. The reaction is stopped with 25 μl 200 mM EDTA. After 30 Min at 30° C. the liquid is removed and each well washed thrice with 100 μl 0.9% sodium chloride solution. Non-specific reaction is determined in presence of 0.1 μM Staurosporine. Radioactivity is measured with Topcount (when using Flashplates) or with LEADseeker (when using Image-Flashplates) respectively. Results (e.g. IC50-values) are calculated with program tools provided by the IT-department (e.g. Symyx Assay Explorer, Genedata Screener).

Row | Structure (SMILES) | IC50 [µM]
1 | COc1ccc(Cl)c(-c2cc3nccc(-c4cccc(C(=O)N[C@@H]5CCCC[C@@H]5N)c4)c3o2)c1 [Compound A25, N-((1R,2S)-2-amino-cyclohexyl)-3-[2-(2-chloro-5-methoxy-phenyl)-furo[3,2-b]pyridin-7-yl]-benzamide] | 0.3 to 3
2 | COc1cc(OCCN)ccc1-c1cc2nccc(-c3ccc4[nH]cnc4c3)c2o1 [Compound A18, 2-{4-[7-(1H-benzoimidazol-5-yl)-furo[3,2-b]pyridin-2-yl]-3-methoxy-phenoxy}-ethylamine] | 0.3 to 3
3 | COc1cc(-c2cc3nccc(-c4nnc(CCN)o4)c3o2)cc(OC)c1OC [Compound A102, 2-{5-[2-(3,4,5-trimethoxy-phenyl)-furo[3,2-b]pyridin-7-yl]-[1,3,4]oxadiazol-2-yl}-ethylamine] | 3 to 50
4 | COc1ccc(C(N)=O)cc1-c1cc2nccc(-c3cc(C(=O)NCCN)ccc3OC)c2o1 [Compound A79, 3-[7-[5-(2-aminoethylcarbamoyl)-2-methoxy-phenyl]furo[3,2-b]pyridin-2-yl]-4-methoxy-benzamide] | 0.3 to 3
5 | COc1cc(O)ccc1-c1cc2nccc(-c3cccc(C(=O)N[C@@H]4CCCC[C@@H]4N)c3)c2o1 [Compound A15, N-((1R,2S)-2-amino-cyclohexyl)-3-[2-(4-hydroxy-2-methoxy-phenyl)furo[3,2-b]pyridin-7-yl]-benzamide] | 0.3 to 3
6 | COc1cc(-c2cc3nccc(NCC4CCCNC4)c3o2)cc(OC)c1OC (stereo not drawn) [Compound A2, Piperidin-3-ylmethyl-[2-(3,4,5-trimethoxy-phenyl)-furo[3,2-b]pyridin-7-yl]-amine] | 3 to 50
7 | COc1ccc(OCCN)cc1-c1cc2nccc(-c3cccc(C(=O)N[C@@H]4CCCC[C@@H]4N)c3)c2o1 [Compound A51, N-((1R,2S)-2-amino-cyclohexyl)-3-{2-[5-(2-amino-ethoxy)-2-methoxy-phenyl]-furo[3,2-b]pyridin-7-yl}-benzamide] | 0.3 to 3
8 | COc1cc2[nH]cnc2cc1-c1ccnc2cc(-c3cc(OC)c(OC)c(OC)c3)oc12 [Compound A87, 7-(6-methoxy-1H-benzoimidazol-5-yl)-2-(3,4,5-trimethoxy-phenyl)-furo[3,2-b]pyridine] | 0.3 to 3
9 | COc1cc(-c2cc3nccc(-c4cc(F)cc(C(=O)NCCCN)c4)c3o2)cc(OC)c1OC [Compound A61, N-(3-amino-propyl)-3-fluoro-5-[2-(3,4,5-trimethoxy-phenyl)-furo[3,2-b]pyridin-7-yl]-benzamide] | 3 to 50
10 | COC[C@H](N)CNC(=O)c1cccc(-c2ccnc3cc(-c4cc(OC)c(OC)c(OC)c4)oc23)c1 [Compound A5, N—((R)-2-amino-3-methoxy-propyl)-3-[2-(3,4,5-trimethoxy-phenyl)-furo[3,2-b]pyridin-7-yl]-benzamide] | 0.3 to 3
11 | Cc1ccc(S(N)(=O)=O)cc1-c1cc2nccc(-c3cccc(C(=O)N[C@@H]4CCCC[C@@H]4N)c3)c2o1 [Compound A50, N-((1R,2S)-2-amino-cyclohexyl)-3-[2-(2-methyl-5-sulfamoyl-phenyl)furo[3,2-b]pyridin-7-yl]-benzamide] | 0.3 to 3
12 | COc1cc(-c2cc3nccc(-c4cc(C)cc(C(=O)NCCN)c4)c3o2)cc(OC)c1OC [Compound A56, N-(2-amino-ethyl)-3-methyl-5-[2-(3,4,5-trimethoxy-phenyl)-furo[3,2-b]pyridin-7-yl]-benzamide] | 0.3 to 3
13 | COc1cc(-c2cc3nccc(-c4cccc(C(=O)N[C@@H]5CCC[C@@H]5O)c4)c3o2)cc(OC)c1OC [Compound A22, N-((1R,2S)-2-hydroxy-cyclopentyl)-3-[2-(3,4,5-trimethoxy-phenyl)-furo[3,2-b]pyridin-7-yl]-benzamide] | 3 to 50
14 | NC(=O)c1ccc(-c2cc3nccc(-c4cccc(C(=O)N[C@@H]5CCCC[C@@H]5N)c4)c3o2)c(F)c1 [Compound A73, 4-{7-[3-((1R,2S)-2-amino-cyclohexylcarbamoyl)-phenyl]-furo[3,2-b]pyridin-2-yl}-3-fluoro-benzamide] | 3 to 50
15 | COc1cc(-c2cc3ncc(F)c(-c4cccc(C(=O)N[C@@H]5CCCC[C@@H]5N)c4)c3o2)cc(OC)c1OC [Compound A47, N-((1R,2S)-2-amino-cyclohexyl)-3-[6-fluoro-2-(3,4,5-trimethoxy-phenyl)furo[3,2-b]pyridin-7-yl]-benzamide] | 0.3 to 3

The remaining lines, values ahead:

Row | IC50 [µM] | Structure (SMILES)
16 | 0.3 to 3 | COc1cc(-c2cc3nccc(-c4cc(C)cc(C(=O)NCCCN)c4)c3o2)cc(OC)c1OC [Compound A57, N-(3-amino-propyl)-3-methyl-5-[2-(3,4,5-trimethoxy-phenyl)-furo[3,2-b]pyridin-7-yl]-benzamide]
17 | 0.3 to 3 | COc1cc(-c2cc3nccc(-c4ccnc(O)c4)c3o2)cc(OC)c1OC [Compound A39, 4-[2-(3,4,5-trimethoxy-phenyl)-furo[3,2-b]pyridin-7-yl]-pyridin-2-ol]
18 | < 0.1 | COc1cc(-c2cc3nccc(-c4c(OC)cncc4OC)c3o2)cc(OC)c1OC [Compound A103, 7-(3,5-dimethoxy-pyridin-4-yl)-2-(3,4,5-trimethoxy-phenyl)-furo[3,2-b]pyridine]
19 | 0.3 to 3 | COc1cc(-c2cc3nccc(-c4cccc(C(=O)NC(C)(C)CO)c4)c3o2)cc(OC)c1OC [Compound A40, N-(2-hydroxy-1,1-dimethyl-ethyl)-3-[2-(3,4,5-trimethoxy-phenyl)-furo[3,2-b]pyridin-7-yl]-benzamide]
20 | 0.1 to 0.3 | COc1cccc(OC)c1-c1ccnc2cc(-c3cc(C(N)=O)ccc3N)oc12 [Compound A107, 4-amino-3-[7-(2,6-dimethoxy-phenyl)-furo[3,2-b]pyridin-2-yl]-benzamide]
21 | 0.1 to 0.3 | COc1ccc(C(N)=O)cc1-c1cc2nccc(-c3c(OC)cncc3OC)c2o1 [Compound A104, 3-[7-(3,5-dimethoxy-pyridin-4-yl)-furo[3,2-b]pyridin-2-yl]-4-methoxybenzamide]
22 | < 0.1 | COc1ccc(C(N)=O)cc1-c1cc2nccc(-c3ccnc(N[C@H]4CCCC[C@H]4N)c3)c2o1 [Compound A96, 3-{7-[2-((1S,2R)-2-amino-cyclohexylamino)-pyridin-4-yl]-furo[3,2-b]pyridin-2-yl}-4-methoxy-benzamide]
23 | < 0.1 | COc1ccc(C(N)=O)cc1-c1cc2nccc(-c3ccnc(N[C@@H]4CCCC[C@@H]4N)c3)c2o1 [Compound A97, 3-{7-[2-((1R,2S)-2-amino-cyclohexylamino)-pyridin-4-yl]-furo[3,2-b]pyridin-2-yl}-4-methoxy-benzamide]
24 | < 0.1 | COc1ccc(S(N)(=O)=O)cc1-c1cc2nccc(-c3cc[nH]n3)c2o1 [Compound A82, 4-methoxy-3-[7-(1H-pyrazol-3-yl)-furo[3,2-b]pyridin-2-yl]-benzenesulfonamide]
25 | < 0.1 | COc1ccc(C(N)=O)cc1-c1cc2nccc(-c3ccnc(NC4CCCCC4N)c3)c2o1 (stereo not drawn) [Compound A81, 3-{7-[2-(2-amino-cyclohexylamino)-pyridin-4-yl]-furo[3,2-b]pyridin-2-yl}-4-methoxy-benzamide]
26 | < 0.1 | COc1cc(-c2cc3nccc(-c4cc[nH]c4)c3o2)cc(OC)c1OC [Compound A83, 7-(1H-pyrrol-3-yl)-2-(3,4,5-trimethoxy-phenyl)-furo[3,2-b]pyridine]
27 | < 0.1 | COc1ccc(C(N)=O)cc1-c1cc2nccc(-c3c(OC)cc(C(=O)NCCN)cc3OC)c2o1 [Compound A76, N-(2-amino-ethyl)-4-[2-(5-carbamoyl-2-methoxy-phenyl)-furo[3,2-b]pyridin-7-yl]-3,5-dimethoxy-benzamide]
